From US20220017516A1, “LOX INHIBITORS” (THE INSTITUTE OF CANCER RESEARCH: ROYAL CANCER HOSPITAL, priority 2018, published 2022)
Read-outs that look alike come from different tables or passages of the source.

Legend:
[1] = target: T1, LOXL2 (Homo sapiens, UniProt Q9Y4K0); experiment: LOX isoform activity assay (ROS Glo), LOXL2; type: biochemical
T1 construct: purchased R&D Systems/Bio-techne
T1 sequence (Q9Y4K0 26-774): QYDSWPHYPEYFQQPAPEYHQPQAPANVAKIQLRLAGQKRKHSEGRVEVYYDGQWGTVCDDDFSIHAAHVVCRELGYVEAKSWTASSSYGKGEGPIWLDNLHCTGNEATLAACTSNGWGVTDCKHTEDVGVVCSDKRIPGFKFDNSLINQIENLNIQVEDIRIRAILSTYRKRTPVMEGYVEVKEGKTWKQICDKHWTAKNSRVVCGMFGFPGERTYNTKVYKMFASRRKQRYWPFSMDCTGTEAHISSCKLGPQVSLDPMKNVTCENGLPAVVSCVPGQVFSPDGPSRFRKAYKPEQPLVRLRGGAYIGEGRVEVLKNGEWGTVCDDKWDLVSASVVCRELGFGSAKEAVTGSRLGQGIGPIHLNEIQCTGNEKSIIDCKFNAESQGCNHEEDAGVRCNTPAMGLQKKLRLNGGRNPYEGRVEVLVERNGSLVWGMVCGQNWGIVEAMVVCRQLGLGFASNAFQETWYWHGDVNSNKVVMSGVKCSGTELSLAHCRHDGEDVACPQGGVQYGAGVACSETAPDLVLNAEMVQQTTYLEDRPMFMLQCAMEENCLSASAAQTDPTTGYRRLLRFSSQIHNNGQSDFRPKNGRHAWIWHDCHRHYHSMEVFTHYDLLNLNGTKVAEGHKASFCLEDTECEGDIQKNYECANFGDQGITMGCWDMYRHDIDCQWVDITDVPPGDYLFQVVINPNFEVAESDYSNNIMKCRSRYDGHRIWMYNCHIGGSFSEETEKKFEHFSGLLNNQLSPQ
How it was run: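 Human LOXL2 in 100 mM CHES pH 9 (1 M urea, 100 mM NaCl, 1 mM MgCl2, 0.5% BSA, 0.05% pluronic F-127) preincubated with compound (0.003–100 μM final) for 20 min, 1 h or 20 h. Cadaverine 19.56 mM and H2O2 25 μM added, 1 h at RT. Luminescence (ROS-Glo luciferin detection) fitted to IC50.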

[2] = target: T2, monoamine oxidase B (MAO-B) (Homo sapiens, UniProt P27338); experiment: Amine oxidase activity assay (MAO-Glo), MAO-B; type: biochemical
T2 construct: purchased Sigma M7441
T2 sequence (P27338 1-520): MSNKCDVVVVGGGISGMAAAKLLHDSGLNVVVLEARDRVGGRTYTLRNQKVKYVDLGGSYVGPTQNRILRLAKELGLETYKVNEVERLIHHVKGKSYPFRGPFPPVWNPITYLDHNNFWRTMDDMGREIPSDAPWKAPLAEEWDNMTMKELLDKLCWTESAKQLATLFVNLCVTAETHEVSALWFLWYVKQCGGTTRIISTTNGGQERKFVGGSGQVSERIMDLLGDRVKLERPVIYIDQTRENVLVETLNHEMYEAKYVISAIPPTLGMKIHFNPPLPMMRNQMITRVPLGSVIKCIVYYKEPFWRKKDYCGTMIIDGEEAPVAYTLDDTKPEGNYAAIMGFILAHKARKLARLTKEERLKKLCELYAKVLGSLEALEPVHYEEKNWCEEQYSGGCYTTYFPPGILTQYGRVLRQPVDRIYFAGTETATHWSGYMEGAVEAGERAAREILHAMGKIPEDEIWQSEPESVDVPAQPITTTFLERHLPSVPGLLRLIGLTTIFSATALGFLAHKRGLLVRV
Procedure: The Promega MAO-Glo assay kit (V1402) was used to assess monoamine oxidase A (MAO-A) and monoamine oxidase B (MAO-B) activity. MAO substrate was prepared at 80 μM with the specific MAO-A/B reaction buffer. Overall, 0.5 μl test compound was added to 25 μl MAO substrate at 100, 30, 10, 3, 1, 0.3, 0.1, 0.03, 0.01 and 0.003 μM (final concentration) in a 96-well white, flat bottom plate. Overall, 25 μl of 1:520 dilution of MAO-A enzyme (Promega, V1452) or 25 μl of 1:52 dilution of MAO-B enzyme (Sigma, M7441) in specific MAO-A/B reaction buffer was added to each well (enzyme prepared at 2×final concentration) and plates were incubated for 1 h at room temperature. Finally, 50 μl per well luciferin detection reagent was added and plates were incubated for 20 min at room temperature, protected from light. Luminescence was measured with an integration time of 500 ms per well using a SpectaMax M5 plate reader and resulting IC50 values were calculated using GraphPad Prism software.
In another setting, the DAO and MAO assays were performed in 384-well plates (Greiner) and test compound was added using a Labcyte Echo™ Acoustic Handler for the same final concentrations as in the 96-well setting. Luminescence was measured with BMG LABTECH PHERAstar FS plate reader.

[3] = 1 hr incubation with enzyme; read-out: LOXL2 IC50 b) 1 hr
[4] = 20 hr incubation with enzyme; read-out: LOXL2 IC50 c) 20 hr

SMILES	IC50 [1, 3] [µM]	IC50 [2] [µM]	IC50 ([1]; 20 min incubation with enzyme; read-out: LOXL2 IC50 a) 20 min) [µM]	IC50 [1, 4] [µM]
CCOc1ccc(N2C[C@H]3CN(C(=O)NCCS(=O)(=O)CCN)C[C@@H]2C(C)(C)C3)cc1 [Example 38, (1S,5S)—N-(2-((2-aminoethyl)sulfonyl)ethyl)-6-(4-ethoxyphenyl)-9,9-dimethyl-3,6-diazabicyclo[3.2.2]nonane-3-carboxamide]	0.58			
CCOc1ccc(N2CC3CN(CCS(=O)(=O)CCN)CC3C2)cc1 (centres unmarked) [Example 4, 2-((2-(5-(4-ethoxyphenyl)hexahydropyrolo [3,4-c]pyrrol-2(1H)-yl)ethyl)sulfonyl)ethan-1-amine]		> 100	7.3	
CCOc1ccc(N2C[C@@H]3C[C@H]2CN3C(=O)CS(=O)(=O)CCN)cc1 [Example 8, 2-((2-aminoethyl)-sulfonyl)-1-((1S,4S)-5-(4-ethoxyphenyl)-2,5-diazabicyclo-[2.2.1]heptan-2-yl)-ethan-1-one]		> 100		0.15
CCOc1ccc(N2C[C@H]3CN(CCS(=O)(=O)CCN)C[C@@H]2C(C)(C)C3)cc1 [Example 1, 2-((2-((1R,5S)-6-(4-ethoxyphenyl)-9,9-dimethyl-3,6-diazabicyclo[3.2.2]nonan-3-yl)ethyl)sulfonyl)ethan-1-amine]		> 100		1.6
CCOc1ccc(N2C[C@H]3CN(C(=O)CS(=O)(=O)CCN)C[C@@H]2C(C)(C)C3)cc1 [Example 7, 2-((2-aminoethyl)sulfonyl)-1-((1S,5S)-6-(4-ethoxyphenyl)-9,9-dimethyl-3,6-diazabicyclo[3.2.2]nonan-3-yl)ethan-1-one]		> 100		0.27
Cc1ccc(S(=O)(=O)N2C[C@H]3CN(C(=O)CS(=O)(=O)CCN)C[C@H]3C2)cc1 [Example 11, 2-((2-aminoethyl)-sulfonyl)-1-(cis-5-tosylhexahydro-pyrrolo[3,4-c]pyrrol-2(1H)-yl)ethan-1-one]	0.17	> 100		
CCOc1ccc(N2C[C@H]3CN(c4ccc(S(=O)(=O)CCN)cc4)C[C@@H]2C(C)(C)C3)cc1 [Example 33, 2-((4-((1R,5S)-6-(4-ethoxyphenyl)-9,9-dimethyl-3,6-diazabicyclo [3.2.2]nonan-3-yl)phenyl)sulfonyl)ethan-1-amine]		> 100		16
CCOc1ccc(N2C[C@@H]3C[C@H]2CN3CCS(=O)(=O)CCN)cc1 [Example 2, 2-((2-((1S,4S)-5-(4-ethoxyphenyl)-2,5-diazabicyclo[2.2.1]heptan-2-yl)ethyl)sulfonyl)-ethan-1-amine]		> 100		0.4

Continued, in another order:

IC50 [1, 3] [µM]	IC50 [2] [µM]	IC50 ([1]; 20 min incubation with enzyme; read-out: LOXL2 IC50 a) 20 min) [µM]	SMILES	IC50 [1, 4] [µM]
0.43	> 100		NCCS(=O)(=O)CC(=O)N1CCN(c2ncccn2)CC1 [Example 12, 2-((2-Aminoethyl)-sulfonyl)-1-(4-(pyrimidin-2-yl)-piperazin-1-yl)ethan-1-one]	
11	> 100		CCOc1ccc(N2C[C@@H]3C[C@H]2CN3C(=O)C2(S(=O)(=O)CCN)CC2)cc1 [Example 42, (1-((2-Aminoethyl)sulfonyl)cyclopropyl)((1S,4S)-5-(4-ethoxyphenyl)-2,5-diazabicyclo[2.2.1]heptan-2-yl)methanone]	
3.1	> 100		CCOC(=O)CCC(C(=O)N1C[C@@H]2C[C@H]1CN2c1ccc(OCC)cc1)S(=O)(=O)CCN (stereo partly drawn) [Example 41, ethyl 4-((2-aminoethyl)sulfonyl)-5-((1S,4S)-5-(4-ethoxyphenyl)-2,5-diazabicyclo[2.2.1]heptan-2-yl)-5-oxopentanoate]	
0.4	> 100		NCCS(=O)(=O)CC(=O)N1CCN(c2ccccc2)CC1 [Example 13, 2-((2-Aminoethyl)-sulfonyl)-1-(4-phenylpiperazin-1-yl)ethan-1-one]	
